In ChEMBL document CHEMBL1139019, “Tricyclic azepine derivatives: pyrimido[4,5-b]-1,4-benzoxazepines as a novel class of epidermal growth factor receptor kinase inhibitors” (Bioorg Med Chem Lett, 2006):

Assays:
[1] = target: T1, Epidermal growth factor receptor (Homo sapiens, UniProt P00533)
[2] = target: T1, Epidermal growth factor receptor; assay: Inhibition of EGFR autophosphorylation in DiFi cells

T1 sequence (P00533 whole entry): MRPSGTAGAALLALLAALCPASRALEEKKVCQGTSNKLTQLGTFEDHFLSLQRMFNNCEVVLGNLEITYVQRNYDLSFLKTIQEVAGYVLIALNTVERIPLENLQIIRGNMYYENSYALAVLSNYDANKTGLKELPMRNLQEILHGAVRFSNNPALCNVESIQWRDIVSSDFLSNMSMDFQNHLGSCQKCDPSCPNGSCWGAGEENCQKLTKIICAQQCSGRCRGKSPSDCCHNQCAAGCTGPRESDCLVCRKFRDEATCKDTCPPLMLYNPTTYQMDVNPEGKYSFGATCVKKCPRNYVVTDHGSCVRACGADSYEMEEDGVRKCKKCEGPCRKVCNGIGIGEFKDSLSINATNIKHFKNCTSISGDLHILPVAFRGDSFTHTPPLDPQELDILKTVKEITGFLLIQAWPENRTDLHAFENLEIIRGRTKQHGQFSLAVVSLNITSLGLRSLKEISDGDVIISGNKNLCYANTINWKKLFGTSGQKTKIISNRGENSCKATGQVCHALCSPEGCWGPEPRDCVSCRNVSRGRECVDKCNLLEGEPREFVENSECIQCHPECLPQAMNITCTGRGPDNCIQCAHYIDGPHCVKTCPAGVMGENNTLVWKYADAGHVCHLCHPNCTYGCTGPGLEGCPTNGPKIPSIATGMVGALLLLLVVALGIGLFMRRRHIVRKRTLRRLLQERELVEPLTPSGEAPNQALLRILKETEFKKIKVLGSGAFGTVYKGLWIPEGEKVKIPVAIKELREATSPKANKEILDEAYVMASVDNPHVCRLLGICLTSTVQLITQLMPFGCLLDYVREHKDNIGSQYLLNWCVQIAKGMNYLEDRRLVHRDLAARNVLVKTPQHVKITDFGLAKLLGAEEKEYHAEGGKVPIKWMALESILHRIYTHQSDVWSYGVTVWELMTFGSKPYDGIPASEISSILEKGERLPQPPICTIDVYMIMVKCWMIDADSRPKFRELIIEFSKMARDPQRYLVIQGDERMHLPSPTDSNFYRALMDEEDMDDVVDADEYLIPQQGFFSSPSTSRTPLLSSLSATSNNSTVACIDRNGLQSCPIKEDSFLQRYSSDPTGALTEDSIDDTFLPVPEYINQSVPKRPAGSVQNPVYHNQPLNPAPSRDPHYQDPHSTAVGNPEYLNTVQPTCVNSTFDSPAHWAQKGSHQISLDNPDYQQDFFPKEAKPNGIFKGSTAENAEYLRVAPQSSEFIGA

Row | SMILES | IC50 [1] | IC50 [2]
1 | Fc1ccc(Nc2ncnc3c2NCc2cc(Br)ccc2O3)cc1Cl | 2 µM | 8.4 µM
2 | CS(=O)(=O)Nc1ccc2c(c1)CNc1c(Nc3ccc(F)c(Cl)c3)ncnc1O2 | > 10 µM | 
3 | O=C(O)c1ccc2c(c1)CNc1c(Nc3ccc(F)c(Cl)c3)ncnc1O2 | 4.4 µM | > 30 µM
4 | Fc1ccc2c(c1)CNc1c(Nc3ccc(F)c(Cl)c3)ncnc1O2 | 1 µM | 7.2 µM
5 | Fc1ccc2c(c1)CNc1c(Nc3cccc(-c4ccccc4)c3)ncnc1O2 | 2 µM | 9.9 µM
6 | C=CC(=O)Nc1ccc2c(c1)CNc1c(Nc3cccc(Br)c3)ncnc1O2 | 5.7 µM | 5.4 µM
7 | COc1cc(OC)c2c(c1)Oc1ncnc(Nc3cccc(Br)c3)c1NC2 | 6.3 µM | > 30 µM
8 | Fc1ccc(Nc2ncnc3c2NCc2cc(Cl)ccc2O3)cc1Cl | 1 µM | 4.3 µM
9 | Brc1ccc2c(c1)CNc1c(Nc3ccccc3)ncnc1O2 | 10 µM | 
10 | COc1ccc2c(c1)CNc1c(NCc3ccccc3)ncnc1O2 | 2 µM | 8.5 µM
11 | Fc1ccc2c(c1)CNc1c(Nc3ccc(Cl)cc3)ncnc1O2 | > 10 µM | 
12 | COc1ccc2c(c1)Oc1ncnc(Nc3ccc(F)c(Cl)c3)c1NC2 | 1 µM | 8.9 µM
13 | C=CC(=O)Nc1ccc2c(c1)CNc1c(Nc3ccc(F)c(Cl)c3)ncnc1O2 | 4.9 µM | 8.9 µM
14 | Nc1ccc2c(c1)CNc1c(Nc3ccc(F)c(Cl)c3)ncnc1O2 | 3.7 µM | 9.1 µM
15 | Fc1ccc2c(c1)CNc1c(NCc3ccccc3)ncnc1O2 | 8.9 µM | > 30 µM
16 | Fc1ccc2c(c1)CNc1c(Nc3ccccc3)ncnc1O2 | 7 µM | 
17 | COc1ccc2c(c1)CNc1c(Nc3ccc(Cl)cc3)ncnc1O2 | 5.8 µM | 
18 | COc1ccc2c(c1)CNc1c(Nc3cccc(-c4ccccc4)c3)ncnc1O2 | > 10 µM | 9.8 µM
19 | COc1cc2c(cc1OC)Oc1ncnc(Nc3ccc(F)c(Cl)c3)c1NC2 | 1.2 µM | 0.69 µM
20 | COc1cc2c(cc1OC)Oc1ncnc(Nc3cccc(Br)c3)c1NC2 | 0.34 µM | 0.47 µM
21 | Fc1ccc(Nc2ncnc3c2NCc2ccccc2O3)cc1Cl | 1.1 µM | 2.7 µM

More lines, now with the values ahead:

Row | IC50 [1] | IC50 [2] | SMILES
22 | 1 µM | 7.2 µM | Brc1cccc(Nc2ncnc3c2NCc2cc(Br)ccc2O3)c1
23 | > 10 µM |  | COc1cccc2c1CNc1c(Nc3cccc(Br)c3)ncnc1O2
24 | 1.5 µM | 6.9 µM | Fc1ccc2c(c1)CNc1c(Nc3cccc(Br)c3)ncnc1O2
25 | > 10 µM |  | FC(F)(F)Oc1ccc2c(c1)CNc1c(Nc3cccc(Br)c3)ncnc1O2
26 | 7.5 µM |  | COc1ccc2c(c1)CNc1c(Nc3ccccc3)ncnc1O2
27 | 1 µM | > 30 µM | O=C(O)c1ccc2c(c1)CNc1c(Nc3cccc(Br)c3)ncnc1O2
28 | 3 µM | 1.9 µM | COc1ccc2c(c1)Oc1ncnc(Nc3cccc(Br)c3)c1NC2
29 | 1.7 µM | > 30 µM | Nc1ccc2c(c1)CNc1c(Nc3cccc(Br)c3)ncnc1O2
30 | 3.1 µM | 1 µM | COc1ccc2c(c1)CNc1c(Nc3cccc(Br)c3)ncnc1O2
31 | 0.9 µM | 2.4 µM | COc1ccc2c(c1)CNc1c(Nc3ccc(F)c(Cl)c3)ncnc1O2
32 | 3.4 µM | > 30 µM | Clc1ccc2c(c1)CNc1c(Nc3cccc(Br)c3)ncnc1O2
33 | 4.1 µM | 7 µM | CS(=O)(=O)Nc1ccc2c(c1)CNc1c(Nc3cccc(Br)c3)ncnc1O2
